Converted amounts (≈) assume the structure as drawn. Where a name gives a salt, the structure may show the parent alone. Read-outs that look alike come from different tables or passages of the source.
Columns and labels:
[1] = tested on: Guinea-pig ileum strips, histamine-induced contraction; assay: Anti-histamine activity in "vitro": histamine-induced spasms of guinea-pig ileum strips; format: cell-based; conditions: Cavia porcellus, 5 min, histamine 0.5 mg/liter, 5 minutes incubation, concentration giving significant inhibition (50%) of the contraction
Experimental: The histamine--(0.5 mg/liter) induced spasms are recorded Kymographically with an isotonic lever giving a 5-fold magnification.

[2] = tested on: histamine paw oedema in guinea pigs; assay: Histamine paw oedema in guinea pigs; format: in vivo, guinea pig; conditions: Cavia porcellus, oral dose giving paw reaction below 10 units 10 minutes after 50 μg histamine s.p., 2 hours after dosing, read-out: Anaphylaxis in guinea pigs oral effective dose in mg/kg: Histamine oedema
Experimental: Guinea pigs, weighing between 400 and 500 g, are sensitized to ovalbumin by subplantar (s.p.) injection of 0.05 ml of antiserum in the left hind paw. The animals are then starved and orally treated, 24 hours after the sensitization, with saline (=control animals) or a particular dose of the compound under investigation. The histamine injection (at a dose of 50 μg) was given s.p. in the right hind paw 2 hours after the oral pretreatment with the compound.

[3] = tested on: Guinea pigs sensitized to ovalbumin (anaphylactic shock); assay: Anaphylaxis in guinea pigs: protection against death after ovalbumin challenge (survival); format: in vivo, guinea pig; conditions: Cavia porcellus, estimated ED50, oral, protection against death after i.v. 0.6 mg ovalbumin, read-out: Anaphylaxis in guinea pigs oral effective dose in mg/kg: Survival
Experimental: The anti-anaphylactic and antihistaminic effects of the subject compounds (I) and salts thereof are studied "in vivo" in guinea pigs.
Guinea pigs, weighing between 400 and 500 g, are sensitized to ovalbumin by subplantar (s.p.) injection of 0.05 ml of antiserum in the left hind paw. The animals are then starved and orally treated, 24 hours after the sensitization, with saline (=control animals) or a particular dose of the compound under investigation.
The histamine injection (at a dose of 50 μg) was given s.p. in the right hind paw 2 hours after the oral pretreatment with the compound. The diameters of both hind paws are first measured before the histamine injection is given and again 10 minutes thereafter. The animals are challenged intravenously with 0.6 mg of ovalbumin 30 minutes after the histamine injection. All control animals develop typical primary anaphylactic shock symptoms (coughing, difficult breathing, convulsions) and 85% of these control animals die within 15 minutes after the ovalbumin injection. Protection against death is used as the criterion for possible drug effects and the estimated ED50 -value, i.e. the oral dose whereby the protection is observed in 50% of the guinea pigs, is listed in the tables below.

[4] = Table I-a, read-out: Histamine in "vitro" (ileum) effective conc.
[5] = Table I-b, read-out: Histamine in "vitro" (ileum) effective conc.

Row | SMILES | IC50 [1, 4] | minimal effective dose ([2]; Table I-a) | ED50 ([3]; Table I-a) | IC50 [1, 5] | minimal effective dose ([2]; Table I-b) | ED50 ([3]; Table I-b) | also measured
1 | Cn1c(=O)n(CCCN2CCN(C(c3ccccc3)c3ccccc3)CC2)c2ccccc21 [1-{3-[4-(diphenylmethyl)-1-piperazinyl]propyl}-1,3-dihydro-3-methyl-2H-benzimidazol-2-one dihydrochloride. hydrate] | 0.01 µg/mL | 2.5 mg/kg | 1.25 mg/kg |  |  |  | 
2 | O=c1[nH]c2cc(C(F)(F)F)ccc2n1CCCN1CCN(C(c2ccccc2)c2ccccc2)CC1 [1-{3-[4-(diphenylmethyl)-1-piperazinyl]propyl}-1,3-dihydro-5-(trifluoromethyl)-2H-benzimidazol-2-one] | 0.02 µg/mL (≈ 0.0404 µM) | 0.31 mg/kg | 0.31 mg/kg |  |  |  | 
3 | Cc1ccc2c(c1)[nH]c(=O)n2CCCN1CCN(C(c2ccccc2)c2ccccc2)CC1 [1-{3-[4-(diphenylmethyl)-1-piperazinyl]propyl}-1,3-dihydro-5-methyl-2H-benzimidazol-2-one] | 0.01 µg/mL (≈ 0.0227 µM) | 0.16 mg/kg | 0.08 mg/kg |  |  |  | 
4 | Cc1ccc2[nH]c(=O)n(CCCN3CCN(C(c4ccccc4)c4ccccc4)CC3)c2c1 [1-{3-[4-(diphenylmethyl)-1-piperazinyl]propyl}-1,3-dihydro-6-methyl-2H-benzimidazol-2-one] | 0.01 µg/mL (≈ 0.0227 µM) | 0.31 mg/kg | 0.16 mg/kg |  |  |  | 
5 | O=c1[nH]c2ccccc2n1CCCCN1CCC(OC(c2ccccc2)c2ccccc2)CC1 [1-{4-[4-(diphenylmethoxy)-1-piperidinyl]butyl}-1,3-dihydro-2H-benzimidazol-2-one] |  |  |  |  |  |  | IC50 ([1]; Table I-d, read-out: Histamine in "vitro" (ileum) effective dose): 0.005 µg/mL (≈ 0.011 µM); minimal effective dose ([2]; Table I-d): 0.31 mg/kg; ED50 ([3]; Table I-d): 0.63 mg/kg
6 | c1ccc(C(c2ccccc2)N2CCN(CCCn3c(C4CCCCC4)nc4ccccc43)CC2)cc1 [2-cyclohexyl-1-{3-[4-(diphenylmethyl)-1-piperazinyl]propyl}-1H-benzimidazole] |  |  |  | ≥ 0.16 µg/mL | 2.5 mg/kg | 2.5 mg/kg | 
7 | O=C(O)Cn1c(=O)n(CCCN2CCN(C(c3ccccc3)c3ccccc3)CC2)c2ccccc21 [3-{3-[4-(diphenylmethyl)-1-piperazinyl]-propyl}-2,3-dihydro-2-oxo-1H-benzimidazole-1-acetic acid hemihydrate] | 0.08 µg/mL | < 2.5 mg/kg | < 2.5 mg/kg |  |  |  | 
8 | O=c1[nH]c2cc(Cl)c(Cl)cc2n1CCCN1CCN(C(c2ccccc2)c2ccccc2)CC1 [5,6-dichloro-1-{3-[4-(diphenylmethyl)-1-piperazinyl]propyl}-1,3-dihydro-2H-benzimidazol-2one] | ≥ 0.16 µg/mL | 2.5 mg/kg | 2.5 mg/kg |  |  |  | 
9 | O=c1[nH]c2cc(Cl)ccc2n1CCN1CCN(C(c2ccccc2)c2ccccc2)CC1 [5-chloro-1-{2-[4-(diphenylmethyl)-1-piperazinyl]ethyl}-1,3-dihydro-2H-benzimidazol-2-one] | 0.01 µg/mL (≈ 0.0224 µM) | 1.25 mg/kg | 0.63 mg/kg |  |  |  | 
10 | O=c1[nH]c2cc(Cl)ccc2n1CCCN1CCN(C(c2ccccc2)c2ccccc2)CC1 [5-chloro-1-{3-[4-(diphenylmethyl)-1-piperazinyl]propyl}-1,3-dihydro-2H-benzimidazol-2-one] | 0.01 µg/mL (≈ 0.0217 µM) | 1.25 mg/kg | 0.63 mg/kg |  |  |  | 
11 | O=c1[nH]c2ccc(Cl)cc2n1CCN1CCN(C(c2ccccc2)c2ccccc2)CC1 [6-chloro-1-{2-[4-(diphenylmethyl)-1-piperazinyl]ethyl}-1,3-dihydro-2H-benzimidazol-2-one] | 0.02 µg/mL (≈ 0.0447 µM) | 2.5 mg/kg | 2.5 mg/kg |  |  |  | 
12 | O=c1[nH]c2ccc(Cl)cc2n1CCCN1CCN(C(c2ccccc2)c2ccccc2)CC1 [6-chloro-1-{3-[4-(diphenylmethyl)-1-piperazinyl]propyl}-1,3-dihydro-2H-benzimidazol-2-one] | 0.04 µg/mL (≈ 0.0868 µM) | 0.63 mg/kg | 0.63 mg/kg |  |  |  | 
13 | O=c1[nH]c2ccccc2n1CCN1CCN(C(c2ccccc2)c2ccccc2)CC1 [I-a: L=H, R1=H, R2=H, (CH2)2, R6=H, R7=H, 1-{2-[4-(diphenylmethyl)-1-piperazinyl]ethyl}-1,3-dihydro-2H-benzimidazol-2-one] | 0.01 µg/mL (≈ 0.0242 µM) | 1.25 mg/kg | 0.63 mg/kg |  |  |  | 
14 | O=c1[nH]c2ccccc2n1CCCN1CCN(C(c2ccccc2)c2ccccc2)CC1 [I-a: L=H, R1=H, R2=H, (CH2)3, R6=H, R7=H, 1-{3-[4-(diphenylmethyl)-1-piperazinyl]propyl}-1,3-dihydro-2H-benzimidazol-2-one] | 0.005 µg/mL (≈ 0.0117 µM) | 0.31 mg/kg | 0.1 mg/kg |  |  |  | 
15 | O=c1[nH]c2ccccc2n1CCCCN1CCN(C(c2ccccc2)c2ccccc2)CC1 [I-a: L=H, R1=H, R2=H, (CH2)4, R6=H, R7=H, 1-{4-[4-(diphenylmethyl)-1piperazinyl]butyl}-1,3-dihydro-2H-benzimidazol-2-one] | 0.01 µg/mL (≈ 0.0227 µM) | 0.31 mg/kg | 0.16 mg/kg |  |  |  | 
16 | O=c1[nH]c2ccccc2n1CCCCCN1CCN(C(c2ccccc2)c2ccccc2)CC1 [I-a: L=H, R1=H, R2=H, (CH2)5, R6=H, R7=H, 1-{5-[4-(diphenylmethyl)-1-piperazinyl]pentyl-1,3-dihydro-2H-benzimidazol-2-one dihydrochloride.hydrate] | 0.01 µg/mL | 2.5 mg/kg | 0.63 mg/kg |  |  |  | 
17 | O=c1[nH]c2ccccc2n1CCCCCCN1CCN(C(c2ccccc2)c2ccccc2)CC1 [I-a: L=H, R1=H, R2=H, (CH2)6, R6=H, R7=H, 1-{6-[4-(diphenylmethyl)-1-piperazinyl]hexyl}-1,3-dihydro-2H-benzimidazol-2-one] | 0.01 µg/mL (≈ 0.0213 µM) | 2.5 mg/kg | 1.25 mg/kg |  |  |  | 
18 | CCc1nc2ccccc2n1CCCN1CCN(C(c2ccccc2)c2ccccc2)CC1 [I-b: M=C2H5, R1=H, (CH2)3, R6=H, R7=H, 1-{3-[4-(diphenylmethyl)-1-piperazinyl]propyl}-2-ethyl-1H-benzimidazole trihydrochloride.hydrate] |  |  |  | 0.01 µg/mL | 2.5 mg/kg | 2.5 mg/kg | 
19 | Cc1nc2ccccc2n1CCCN1CCN(C(c2ccccc2)c2ccccc2)CC1 [I-b: M=CH3, R1=H, (CH2)3, R6=H, R7=H, 1-{3-[4-(diphenylmethyl)-1-piperazinyl]propyl}-2-methyl-1H-benzimidazole] |  |  |  | 0.02 µg/mL (≈ 0.0471 µM) | 2.5 mg/kg | 2.5 mg/kg | 
20 | Cc1nc2ccccc2n1CCCCN1CCN(C(c2ccccc2)c2ccccc2)CC1 [I-b: M=CH3, R1=H, (CH2)4, R6=H, R7=H, 1-{4-[4-(diphenylmethyl)-1-piperazinyl]butyl}-2-methyl-1H-benzimidazole] |  |  |  | 0.005 µg/mL (≈ 0.0114 µM) | 1.25 mg/kg | 1.25 mg/kg | 
21 | CSc1nc2ccccc2n1CCCN1CCN(C(c2ccccc2)c2ccccc2)CC1 [I-b: M=CH3S, R1=H, (CH2)3, R6=H, R7=H, 1-{3-[4-(diphenylmethyl)-1piperazinyl]propyl}-2-(methylthio)-1H-benzimidazole trihydrochloride.hydrate] |  |  |  | 0.16 µg/mL | 1.25 mg/kg | 1.25 mg/kg | 
22 | Nc1nc2ccccc2n1CCCN1CCN(C(c2ccccc2)c2ccccc2)CC1 [I-b: M=H2N, R1=H, (CH2)3, R6=H, R7=H, 1-{3-[4-(diphenylmethyl)-1-piperazinyl]propyl}-1H-benzimidazol-2-amine] |  |  |  | ≤ 0.16 µg/mL | 2.5 mg/kg | 2.5 mg/kg | 
23 | c1ccc(C(c2ccccc2)N2CCN(CCn3cnc4ccccc43)CC2)cc1 [I-b: M=H, R1=H, (CH2)2, R6=H, R7=H, 1-{2-[4-(diphenylmethyl)-1-piperazinyl]ethyl}-1H-benzimidazole] |  |  |  | 0.005 µg/mL (≈ 0.0126 µM) | 1.25 mg/kg | 1.25 mg/kg | 
24 | Cl.Cl.Cl.Clc1ccccc1C(c1ccccc1)N1CCN(CCCn2cnc3ccccc32)CC1.O.O (stereo not drawn) [I-b: M=H, R1=H, (CH2)3, R6=2-Cl, R7=H, 1-[3-{4-[(2-chlorophenyl)phenylmethyl]-1-piperazinyl}propyl]1H-benzimidazole trihydrochloride dihydrate] |  |  |  | 0.01 µg/mL | 1.25 mg/kg | 1.25 mg/kg | 
